Each structure is given as a SMILES string. Where a SMILES comes first, the peptide text is derived from it. Bridges are numbered along the chain shown (N, C = ends). [ ]: non-standard residue; d: D form. R8 = C=CCCCCCC[C@@](C)(N)C(=O)O; Cba = N[C@@H](CC1CCC1)C(=O)O; S5 = C=CCCC[C@](C)(N)C(=O)O

Test [1] addresses T1, MDMX (Homo sapiens, UniProt O15151).
T1 sequence (O15151 1-490): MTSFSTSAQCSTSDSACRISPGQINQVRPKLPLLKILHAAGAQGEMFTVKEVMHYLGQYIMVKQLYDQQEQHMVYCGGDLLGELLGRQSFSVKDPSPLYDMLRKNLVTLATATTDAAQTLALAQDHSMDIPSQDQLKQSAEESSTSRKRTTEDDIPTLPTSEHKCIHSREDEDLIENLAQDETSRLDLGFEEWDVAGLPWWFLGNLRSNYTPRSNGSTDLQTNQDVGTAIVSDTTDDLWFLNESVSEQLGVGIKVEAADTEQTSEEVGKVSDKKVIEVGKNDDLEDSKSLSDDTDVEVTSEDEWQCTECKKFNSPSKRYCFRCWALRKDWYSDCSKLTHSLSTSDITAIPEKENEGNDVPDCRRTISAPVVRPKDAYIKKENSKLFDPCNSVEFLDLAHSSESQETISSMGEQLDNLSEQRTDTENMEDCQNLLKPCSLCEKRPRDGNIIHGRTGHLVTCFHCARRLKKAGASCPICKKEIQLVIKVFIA
Briefly: Experimental MDMX binding (Table 4). An excerpt: Table 4 Prospective Testing Data. | column: Experimental MDMX / Kd (nM); Experimental MDMX / ΔΔG (kcal)

Test [2] concerns the target T2, MDM2 (1-125) (Homo sapiens, UniProt Q00987).
T2 construct: Purified MDM2 (1-125) protein was titrated against
The test is described as follows: Mdm2 competitive fluorescence anisotropy assay. The class given is binding. To be noted: read-out: Experimental MDM2 Kd. The procedure:
Mdm2 Competitive Fluorescence Anisotropy Assay and Kd Determination Purified MDM2 (1-125) protein was titrated against 50 nM carboxyfluorescein (FAM)-labeled 12/1 peptide (FAM-[…]-NH2). […] (4) r=r0+(rb−r0)((Kd+[L]t+[P]t)−(Kd+[L]t+[P]t)^2−4[L]t[P]t/2[L]t)
[P] is the protein concentration (MDM2), [L] is the labeled peptide concentration, r is the anisotropy measured, ro is the anisotropy of the free peptide, rb is the anisotropy of the MDM2–FAM-labeled peptide complex, Kd is the dissociation constant, [L]t is the total FAM-labeled peptide concentration, and [P]t is the total MDM2 concentration.
Apparent Kd values were determined for a variety of molecules via competitive fluorescence anisotropy experiments. Titrations were carried out with the concentration of MDM2 held constant at 250 nM and the labeled peptide at 50 nM. The competing molecules were then titrated against the complex of the FAM-labeled peptide and protein. Apparent Kd values were determined by fitting the experimental data to the equations shown below: [58, 59]. […]
[L]st and [L]t denote labeled ligand and total unlabeled ligand input concentrations, respectively. […] Kd1 is the apparent Kd for the labeled peptide used in the respective experiment, which has been experimentally determined as described in the previous paragraph. […] Readings were carried out with an Envision Multilabel Reader (PerkinElmer). […]
For orientation: Fluorescence polarisation rises when a labelled molecule tumbles more slowly, as on binding a larger partner.

T2 sequence (Q00987 1-125): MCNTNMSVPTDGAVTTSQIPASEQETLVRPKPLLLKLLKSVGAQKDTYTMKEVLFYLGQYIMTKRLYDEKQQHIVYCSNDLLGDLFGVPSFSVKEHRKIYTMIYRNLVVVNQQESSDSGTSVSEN

As for `CC(=O)N[C@@H](CC(C)C)C(=O)N[C@H](C(=O)N[C@@H](Cc1ccccc1)C(=O)N[C@]1(C)CCCCCCC=CCCC[C@@](C)(C(=O)N[C@@H](CO)C(=O)N[C@@H](C)C(=O)N[C@@H](C)C(N)=O)NC(=O)[C@H](CC2CCC2)NC(=O)[C@H](CC(C)C)NC(=O)[C@H](CCC(N)=O)NC(=O)[C@H](Cc2c[nH]c3ccccc23)NC(=O)[C@H](Cc2ccc(O)cc2)NC(=O)[C@H](CCC(=O)O)NC1=O)[C@@H](C)O` [WT], the Kd in test [1] amounted to 12.5 nM.

On to `CC(=O)N[C@@H](CC(C)C)C(=O)N[C@H](C(=O)N[C@@H](Cc1ccccc1)C(=O)N[C@]1(C)CCCCCCC=CCCC[C@@](C)(C(=O)N[C@@H](CO)C(=O)N[C@@H](C)C(=O)N[C@@H](C)C(N)=O)NC(=O)[C@H](CC2CCC2)NC(=O)[C@H](CC(C)C)NC(=O)[C@H](CCC(N)=O)NC(=O)[C@H](Cc2c[nH]c3ccccc23)NC(=O)[C@H](C)NC(=O)[C@H](CCC(=O)O)NC1=O)[C@@H](C)O` [Y6A] (Ac-LTF[R8]EAWQL[Cba][S5]SAA-NH2; staple 4-11), for which the Kd was determined as 51.5 nM in test [2] and 130 nM in test [1].

As for `CC(=O)N[C@@H](CC(C)C)C(=O)N[C@H](C(=O)N[C@@H](Cc1ccccc1)C(=O)N[C@]1(C)CCCCCCC=CCCC[C@@](C)(C(=O)N[C@@H](CO)C(=O)N[C@@H](C)C(=O)N[C@@H](C)C(N)=O)NC(=O)[C@H](CC2CCC2)NC(=O)[C@H](CC(C)C)NC(=O)[C@H](CCC(N)=O)NC(=O)[C@H](Cc2c[nH]c3ccccc23)NC(=O)[C@@H](Cc2ccc(O)cc2)NC(=O)[C@H](CCC(=O)O)NC1=O)[C@@H](C)O` [Y6dY], the Kd came to 365 nM in test [2] and 921 nM in test [1].

What is called Kd is a measure of binding affinity in units of concentration.

(Values after paper PMC6943714, “Rigorous Computational and Experimental Investigations on MDM2/MDMX-Targeted Linear and Macrocyclic Peptides” (Molecules, 2019).)
